In patent US20120225092A1, “COSMETIC USE OF SKIN CELL AUTOPHAGY ACTIVATORS” (SOCIETE INDUSTRIELLE LIMOUSINE D'APPLICATION BIOLOGIQUE …, priority 2008, published 2012):
Like-named read-outs stand apart in the source and are kept apart here.

Tests used:
protein DRAM = conditions: H2O2 125 μM, relative to control without stress
Protocol: (§1) The protocol is as follows: • Cultivation of cells for 24 hours in a complete culture medium. • Removal of the culture medium and replacement with the non-nutritive culture medium that contains the oxidizing agent H2O2 for 3 hours (different doses of H2O2—125 μM and/or 250 μM—have been tested). • Removal of the oxidizing agent and the non-nutritive culture medium, replacement by a complete culture medium without an oxidizing agent. • Evaluation of the expression of MAP-LC3, the phosphorylated protein p53, or the protein DRAM after cellular recovery. Several recovery times have been selected (0.5 hour, 1 hour, 1.5 hours, or 2 hours of recovery).
It is also possible to evaluate the autophagy of stressed cutaneous cells by visualizing the expression of the protein DRAM by Western Blott.
(§2) The evaluation of the expression of DRAM was therefore analyzed under these moderate stress conditions with 125 μM of H2O2 on HaCaT keratinocyte cultures and on normal human keratinocytes. The expression of DRAM is presented in the table below in percentage relative to the control (without stress).

MAP-LC3 [1] = conditions: relative to control without stress
Protocol: This study has as its objective to compare the autophagy level of young cells (from donors with a mean age of 26 years) and aged cells (from donors with a mean age of 70 years) that are subjected to the same oxidative and nutritive stresses.
The evaluation of the autophagy level was considered by the analysis of the expression of the protein MAP-LC3 by Western Blott.
The protocol that is put into place is as follows: • Cultures of so-called young or aged cells for 24 hours in the complete culture medium, • Removal of the complete culture medium, replacement with the non-nutritive culture medium that contains the oxidizing agent H2O2 for 3 hours at different doses, • Removal of the oxidizing agent, replacement by the complete culture medium without an oxidizing agent, • Evaluation of the expression of MAP-LC3 after cellular recovery.

MAP-LC3 [2] = tested on: MAP-LC3
Protocol: as §1
It is possible to evaluate the autophagy of stressed cutaneous cells by visualizing the expression of the protein MAP-LC3 by immunofluorescent marking.
The evaluation of the expression MAP-LC3 was analyzed under these moderate stress conditions (125 μM and 250 μM of hydrogen peroxide H2O2) on HaCaT keratinocyte cultures and on normal human keratinocytes. With the immunomarking results being qualitative, several levels of expression of ATG5-12 were defined: […]

[3] = tested on: phosphorylated protein p53; conditions: H2O2 125 μM, relative to control without stress
Protocol: as §1
It is also possible to evaluate the autophagy of stressed cutaneous cells by visualizing the expression of the phosphorylated protein p53 by Western Blott.
as §2, with “the phosphorylated protein p53 has” for “DRAM was”, “therefore been” for “therefore”, “phosphorylated p53” for “DRAM”

In the case of `OO` [H2O2, hydrogen peroxide], the “Expression of DRAM (%)” value (protein DRAM; recovery time 0.5 hour) is reported as 120%, the “Expression of DRAM (%)” value (protein DRAM; recovery time 1 hour) is reported as 180% and the “Expression of DRAM (%)” value (protein DRAM; recovery time 1.5 hours) is reported as 390%. For the same compound, the “Expression of DRAM (%)” value (protein DRAM; recovery time 2 hours) was 200%, the “Expression of MAP-LC3 On Aged Cells” value (MAP-LC3 [1]; H2O2 125 μM for 3 hours, aged cells (donors mean age 70 years)) was 138% and the “Expression of MAP-LC3 On Young Cells” value (MAP-LC3 [1]; H2O2 125 μM for 3 hours, young cells (donors mean age 26 years)) was 172%. For the same compound, the “Expression of MAP-LC3 On Aged Cells” value (MAP-LC3 [1]; H2O2 250 μM for 3 hours, aged cells) was 187%, the “Expression of MAP-LC3 On Young Cells” value (MAP-LC3 [1]; H2O2 250 μM for 3 hours, young cells) was 322% and the “Expression of MAP-LC3 On Aged Cells” value (MAP-LC3 [1]; H2O2 400 μM for 3 hours, aged cells) was 135%. For the same compound, the “Expression of MAP-LC3 On Young Cells” value (MAP-LC3 [1]; H2O2 400 μM for 3 hours, young cells) was 168%, the “Expression of MAP-LC3 On Aged Cells” value (MAP-LC3 [1]; H2O2 600 μM for 3 hours, aged cells) was 96% and the “Expression of MAP-LC3 On Young Cells” value (MAP-LC3 [1]; H2O2 600 μM for 3 hours, young cells) was 143%. The “Expression of MAP-LC3 On Aged Cells” value (MAP-LC3 [1]; H2O2 1000 μM for 3 hours, aged cells) was 92%, the “Expression of MAP-LC3 On Young Cells” value (MAP-LC3 [1]; H2O2 1000 μM for 3 hours, young cells) was 117% and the “Expression of MAP-LC3” value (MAP-LC3 [2]; H2O2 125 μM for 3 hours in non-nutritive medium, recovery time 0.5 hour, HaCaT and normal human keratinocytes) was “++”. The “Expression of MAP-LC3” value (MAP-LC3 [2]; H2O2 125 μM for 3 hours in non-nutritive medium, recovery time 1 hour) was “++”, the “Expression of MAP-LC3” value (MAP-LC3 [2]; H2O2 125 μM for 3 hours in non-nutritive medium, recovery time 1.5 hours) was “+++” and the “Expression of MAP-LC3” value (MAP-LC3 [2]; H2O2 125 μM for 3 hours in non-nutritive medium, recovery time 2 hours) was “++”. The “Expression of MAP-LC3” value (MAP-LC3 [2]; H2O2 250 μM for 3 hours in non-nutritive medium, recovery time 0.5 hour) was “++”, the “Expression of MAP-LC3” value (MAP-LC3 [2]; H2O2 250 μM for 3 hours in non-nutritive medium, recovery time 1 hour) was “+++” and the “Expression of MAP-LC3” value (MAP-LC3 [2]; H2O2 250 μM for 3 hours in non-nutritive medium, recovery time 1.5 hours) was “++”. For the same compound, the “Expression of MAP-LC3” value (MAP-LC3 [2]; H2O2 250 μM for 3 hours in non-nutritive medium, recovery time 2 hours) was “+”, the “Phosphorylated Expression p53 (%)” value ([3]; recovery time 0.5 hour) was 221% and the “Phosphorylated Expression p53 (%)” value ([3]; recovery time 1 hour) was 140%. The “Phosphorylated Expression p53 (%)” value ([3]; recovery time 2 hours) was 128%.
